Results from patent publication US9138447B2, “Antimicrobial agent and method for the production thereof” (UNIVERSITY COLLEGE CARDIFF CONSULTANTS LTD., priority 2008, dated 2015).

Test system: methicillin resistant Staphylococcus aureus (MRSA)
Experiment: Growth inhibition of MRSA
Assay type: cell-based
Text: Mupirocin (Pseudomonic acid A, or Bactroban) is the frontline topical antibiotic used to combat skin infections with gram positive bacteria and is also used in the eradication of MRSA from infected people. It was originally produced as Bactroban by GlaxoSmithKline, but now it is available generically within a number of different commercial formulations. MRSA strain 52 is susceptible to both the P. fluorescens mupirocin (Panel A) and Vietnamycin (BVAS; Panel B). However, MRSA strain 49 is representative of a number of emerging S. aureus strains that are resistant to mupirocin (Panel C).

SMILES: C/C(=C\C(=O)OCCCCCCCCC(=O)O)C[C@@H]1OC[C@H](C[C@@H]2O[C@H]2[C@@H](C)[C@H](C)O)[C@@H](O)[C@H]1O [mupirocin, Mupirocin]
- Growth inhibition of mupirocin resistant MRSA (strain 49) (mupirocin resistant strain): resistant
- Growth inhibition of MRSA strain 52 (mupirocin susceptible strain, producer bacterium overlay): susceptible
